# Measurements reported in patent US10231965B2, “Molecules for administration to ROS1 mutant cancer cells” (Ignyta, Inc., priority 2014, dated 2019).
# “Also recorded” adds a separate entry of the source.
# Assays:
# [1] = test system: Non-Small Cell Lung Cancer (NSCLC); experiment: Dose escalation study: tumor response by RECIST, NSCLC patients; assay type: in vivo, human
# Procedure: (§1) A dose escalation study of N-[5-(3,5-difluorobenzyl)-1H-indazol-3-yl]-4-(4-methyl-piperazin-1-yl)-2-(tetrahydro-2H-pyran-4-ylamino) benzamide was conducted in human patients with advanced solid tumors. N-[5-(3,5-difluorobenzyl)-1H-indazol-3-yl]-4-(4-methyl-piperazin-1-yl)-2-(tetrahydro-2H-pyran-4-ylamino) benzamide was dosed orally once/day in a 4 day on, 3 day off schedule for 3 weeks, followed by a 7 day rest period, in continuous 28-day cycles (Schedule A); once/day in continuous 28-day cycles (Schedule B); and once/day in a 4 day on, 3 day off schedule without interruption in continuous 28-day cycles (Schedule C). A minimum of 3 patients were enrolled at each dose level. Endpoints include safety, PK, and tumor response by response evaluation criteria in solid tumors (RECIST).
# (§2) Schedule A evaluated ascending oral doses of N-[5-(3,5-difluorobenzyl)-1H-indazol-3-yl]-4-(4-methyl-piperazin-1-yl)-2-(tetrahydro-2H-pyran-4-ylamino) benzamide once daily (fasted state) in a 4-day on, 3-day off schedule for 3 weeks, followed by a 7-day rest period, in continuous 28-day cycles. Dose escalation was conducted according to the standard ‘3+3’ scheme.
# (§3) Schedule B evaluated ascending oral doses of N-[5-(3,5-difluorobenzyl)-1H-indazol-3-yl]-4-(4-methyl-piperazin-1-yl)-2-(tetrahydro-2H-pyran-4-ylamino) benzamide once daily (fed state) without rest, in continuous 28-day cycles.
# (§4) Schedule C evaluated ascending oral doses of N-[5-(3,5-difluorobenzyl)-1H-indazol-3-yl]-4-(4-methyl-piperazin-1-yl)-2-(tetrahydro-2H-pyran-4-ylamino) benzamide once daily (fed state) in a 4-day on, 3-day off schedule for 4 weeks without rest, in continuous 28-day cycles.
# [2] = test system: human patients with advanced solid tumors; experiment: Dose escalation study in human patients with advanced solid tumors: safety, adverse events; assay type: in vivo
# Procedure: as §1, §2, §3, §4
# Colorectal Cancer (CRC) = experiment: Dose escalation study: tumor response by RECIST, CRC patient; assay type: in vivo, human; settings: person, metastatic CRC, TrkA rearrangement, 1600 mg/m^2, Schedule A
# Procedure: as §1, §2, §3, §4
# advanced solid tumors = experiment: Dose escalation study: tumor response by RECIST, all patients; assay type: in vivo, human
# Procedure: as §1, §2, §3, §4
# [3] = Dose escalation study in human patients with advanced solid tumors: PK; assay type: in vivo
# Procedure: as §1, §2, §3, §4
# Neuroblastoma (NB) = experiment: Dose escalation study: tumor response by RECIST, neuroblastoma patient; assay type: in vivo, human; settings: person, metastatic NB, ALK mutation, Schedule A
# Procedure: as §1, §2
# Schedule B evaluated ascending oral doses of N-[5-(3,5-difluorobenzyl)-1H-indazol-3-yl]-4-(4-methyl-piperazin-1-yl)-2-(tetrahydro-2H-pyran-4-ylamino) benzamide once daily (fed state) without rest, in continuous 28-day cycles. […]
compound,measurement,setting,value
"CN1CCN(c2ccc(C(=O)Nc3n[nH]c4ccc(Cc5cc(F)cc(F)c5)cc34)c(NC3CCOCC3)c2)CC1 [N-[5-(3,5-difluorobenzyl)-1H-indazol-3-yl]-4-(4-methyl-piperazin-1-yl)-2-(tetrahydro-2H-pyran-4-ylamino) benzamide]",tumor response,"[1]; person one, ROS1 rearrangement, s/p 3 cycles of chemotherapy, 400 mg/m2/day, Schedule C",partial response
same,cycles until response achieved,"[1]; person one, ROS1 rearrangement, 400 mg/m2/day, Schedule C",1 cycle
same,tumor response,"[1]; person two, ROS1 rearrangement, s/p 2 cycles of chemotherapy, 400 mg/m2/day, Schedule C",complete response
same,cycles until response achieved,"[1]; person two, ROS1 rearrangement, 400 mg/m2/day, Schedule C",2 cycles
same,cycles until response achieved,"[1]; person, ALK rearrangement, 1200 mg/m2/day, Schedule A",4 cycles
same,tumor response,"[1]; person, CNS metastases, ROS1 rearrangement, s/p chemotherapy, erlotinib, 1200 mg/m^2/day, Schedule A",partial response
same,cycles until response achieved,"[1]; person, CNS metastases, ROS1 rearrangement, 1200 mg/m^2/day, Schedule A",2 cycles
same,tumor response,"[1]; person, metastatic adenocarcinoma, ALK rearrangement, s/p chemotherapy, crizotinib, 1200 mg/m2/day, Schedule A",partial response
same,Abdominal pain G1 (%),"[2]; 25 patients, all schedules",16%
same,"Abdominal pain G1, number of patients","[2]; 25 patients, all schedules",4
same,Abdominal pain G2 (%),"[2]; 25 patients, all schedules",8%
same,"Abdominal pain G2, number of patients","[2]; 25 patients, all schedules",2
same,Abdominal pain Total (%),"[2]; 25 patients, all schedules",24%
same,"Abdominal pain Total, number of patients","[2]; 25 patients, all schedules",6
same,Arthralgia G1 (%),"[2]; 25 patients, all schedules",12%
same,"Arthralgia G1, number of patients","[2]; 25 patients, all schedules",3
same,Arthralgia G2 (%),"[2]; 25 patients, all schedules",12%
same,"Arthralgia G2, number of patients","[2]; 25 patients, all schedules",3
same,Arthralgia Total (%),"[2]; 25 patients, all schedules",24%
same,"Arthralgia Total, number of patients","[2]; 25 patients, all schedules",6
same,Asthenia G1 (%),"[2]; 25 patients, all schedules",36%
same,"Asthenia G1, number of patients","[2]; 25 patients, all schedules",9
same,Asthenia G2 (%),"[2]; 25 patients, all schedules",12%
same,"Asthenia G2, number of patients","[2]; 25 patients, all schedules",3
same,Asthenia Total (%),"[2]; 25 patients, all schedules",52%
same,"Asthenia Total, number of patients","[2]; 25 patients, all schedules",13
same,Back Pain G1 (%),"[2]; 25 patients, all schedules",20%
same,"Back Pain G1, number of patients","[2]; 25 patients, all schedules",5
same,Back Pain G2 (%),"[2]; 25 patients, all schedules",4%
same,"Back Pain G2, number of patients","[2]; 25 patients, all schedules",1
same,Back Pain Total (%),"[2]; 25 patients, all schedules",24%
same,"Back Pain Total, number of patients","[2]; 25 patients, all schedules",6
same,Cough G1 (%),"[2]; 25 patients, all schedules",16%
same,"Cough G1, number of patients","[2]; 25 patients, all schedules",4
same,Cough G2 (%),"[2]; 25 patients, all schedules",4%
same,"Cough G2, number of patients","[2]; 25 patients, all schedules",1
same,Cough Total (%),"[2]; 25 patients, all schedules",20%
same,"Cough Total, number of patients","[2]; 25 patients, all schedules",5
same,Diarrhea G1 (%),"[2]; 25 patients, all schedules",24%
same,"Diarrhea G1, number of patients","[2]; 25 patients, all schedules",6
same,Diarrhea G2 (%),"[2]; 25 patients, all schedules",8%
same,"Diarrhea G2, number of patients","[2]; 25 patients, all schedules",2
same,Diarrhea Total (%),"[2]; 25 patients, all schedules",32%
same,"Diarrhea Total, number of patients","[2]; 25 patients, all schedules",8
same,Dysgeusia G1 (%),"[2]; 25 patients, all schedules",24%
same,"Dysgeusia G1, number of patients","[2]; 25 patients, all schedules",6
same,Dysgeusia G2 (%),"[2]; 25 patients, all schedules",0 (0) %
same,"Dysgeusia G2, number of patients","[2]; 25 patients, all schedules",0 (0)
same,Dysgeusia Total (%),"[2]; 25 patients, all schedules",24%
same,"Dysgeusia Total, number of patients","[2]; 25 patients, all schedules",6
same,Dyspnea G1 (%),"[2]; 25 patients, all schedules",12%
same,"Dyspnea G1, number of patients","[2]; 25 patients, all schedules",3
same,Dyspnea G2 (%),"[2]; 25 patients, all schedules",4%
same,"Dyspnea G2, number of patients","[2]; 25 patients, all schedules",1
same,Dyspnea Total (%),"[2]; 25 patients, all schedules",24%
same,"Dyspnea Total, number of patients","[2]; 25 patients, all schedules",6
same,Headache G1 (%),"[2]; 25 patients, all schedules",24%
same,"Headache G1, number of patients","[2]; 25 patients, all schedules",6
same,Headache G2 (%),"[2]; 25 patients, all schedules",0 (0) %
same,"Headache G2, number of patients","[2]; 25 patients, all schedules",0 (0)
same,Headache Total (%),"[2]; 25 patients, all schedules",24%
same,"Headache Total, number of patients","[2]; 25 patients, all schedules",6
same,Myalgia G1 (%),"[2]; 25 patients, all schedules",24%
same,"Myalgia G1, number of patients","[2]; 25 patients, all schedules",6
same,Myalgia G2 (%),"[2]; 25 patients, all schedules",4%
same,"Myalgia G2, number of patients","[2]; 25 patients, all schedules",1
same,Myalgia Total (%),"[2]; 25 patients, all schedules",28%
same,"Myalgia Total, number of patients","[2]; 25 patients, all schedules",7
same,Nausea G1 (%),"[2]; 25 patients, all schedules",56%
same,"Nausea G1, number of patients","[2]; 25 patients, all schedules",14
same,Nausea G2 (%),"[2]; 25 patients, all schedules",8%
same,"Nausea G2, number of patients","[2]; 25 patients, all schedules",2
same,Nausea Total (%),"[2]; 25 patients, all schedules",64%
same,"Nausea Total, number of patients","[2]; 25 patients, all schedules",16
same,Paresthesia G1 (%),"[2]; 25 patients, all schedules",60%
same,"Paresthesia G1, number of patients","[2]; 25 patients, all schedules",15
same,Paresthesia G2 (%),"[2]; 25 patients, all schedules",0 (0) %
same,"Paresthesia G2, number of patients","[2]; 25 patients, all schedules",0 (0)
same,Paresthesia Total (%),"[2]; 25 patients, all schedules",60%
same,"Paresthesia Total, number of patients","[2]; 25 patients, all schedules",15
same,Pyrexia G1 (%),"[2]; 25 patients, all schedules",24%
same,"Pyrexia G1, number of patients","[2]; 25 patients, all schedules",6
same,Pyrexia G2 (%),"[2]; 25 patients, all schedules",0 (0) %
same,"Pyrexia G2, number of patients","[2]; 25 patients, all schedules",0 (0)
same,Pyrexia Total (%),"[2]; 25 patients, all schedules",24%
same,"Pyrexia Total, number of patients","[2]; 25 patients, all schedules",6
same,Vomiting G1 (%),"[2]; 25 patients, all schedules",28%
same,"Vomiting G1, number of patients","[2]; 25 patients, all schedules",7
same,Vomiting G2 (%),"[2]; 25 patients, all schedules",8%
same,"Vomiting G2, number of patients","[2]; 25 patients, all schedules",2
same,Vomiting Total (%),"[2]; 25 patients, all schedules",36%
same,"Vomiting Total, number of patients","[2]; 25 patients, all schedules",9
same,"possibly drug-related Grade >3 AE observed (asthenia), number","[2]; Grade 3 in one patient, 1200 mg/m^2, Schedule A, subsided with dose reduction to 800 mg/m^2/day",1
same,severity of AEs,[2]; all dosing schedules tested,Most AEs<Grade 2
same,tolerability,"[2]; all dosing schedules tested, intermittent and daily continuous",well tolerated in all dosing schedules tested
same,"DLTs, study discontinuations due to AEs, drug-related SAEs",[2]; any dosing schedule,"No drug limiting toxicities, study discontinuations due to adverse events, or drug-related serious adverse events were reported; also recorded: No DLTs, study discontinuations due to AEs, or drug-related SAEs were reported"
same,most common adverse events (mainly grade 1-2) considered possibly treatment-related,"[2]; human patients, oral","nausea, paresthesia, vomiting, diarrhea, asthenia, myalgia, arthralgia, and dysgeusia"
same,"possibly treatment-related grade 3 AE of asthenia, number","[2]; human patients, oral",one
same,tumor response,"Colorectal Cancer (CRC); s/p chemotherapy, cetuximab",partial response
same,cycles until response achieved,Colorectal Cancer (CRC),1 cycle
same,duration of partial response before progressive disease,Colorectal Cancer (CRC),4 cycles
same,number of partial responses durable >9 cycles,advanced solid tumors; 25 patients evaluated,3
same,number of partial responses,"advanced solid tumors; 25 patients evaluated, NSCLC, CRC and NB with TrkA, ROS1, and ALK molecular alterations",5
same,complete response,"advanced solid tumors; 25 patients evaluated, patient with NSCLC with a ROS1 molecular alteration",a complete response
same,number of patients with prolonged stable disease (11+ cycles),advanced solid tumors; NSCLC and pancreatic adenocarcinoma,2
same,exposure at top dose (reason Schedule A was terminated),"[3]; Schedule A, 1600 mg/m2/day",plateau
same,mean plasma half-life,"[3]; human patients, oral once/day, following administration",17 to 44 h
same,Exposure versus dose,"[3]; human patients, oral, dosing Schedule A",increased in an approximate dose proportional manner up to doses of 800 mg/m^2
same,cycles until response achieved,Neuroblastoma (NB); 200 to 1200 mg/m^2/day,12 cycles
same,tumor response,"Neuroblastoma (NB); started at 200 mg/m^2/day, escalated to 1200 mg/m^2/day",partial response
